Entries after “also recorded” stand apart in the source; their conditions may differ. Read-outs that look alike come from different tables or passages of the source.
Columns and labels:
[1] = molecular target: T1, wild-type Drosophila melanogaster EcR (DmEcR-DEF) (Drosophila melanogaster, UniProt P34021); assay: Two-hybrid gene switch assay, DmEcR-DEF in NIH3T3 cells; details: for rel max FI (20E), DM: max fold induction at any concentration relative to 20E; for rel max FI (PoA), DM: max fold induction at any concentration relative to PoA
T1 sequence (P34021 342-878 limits assumed): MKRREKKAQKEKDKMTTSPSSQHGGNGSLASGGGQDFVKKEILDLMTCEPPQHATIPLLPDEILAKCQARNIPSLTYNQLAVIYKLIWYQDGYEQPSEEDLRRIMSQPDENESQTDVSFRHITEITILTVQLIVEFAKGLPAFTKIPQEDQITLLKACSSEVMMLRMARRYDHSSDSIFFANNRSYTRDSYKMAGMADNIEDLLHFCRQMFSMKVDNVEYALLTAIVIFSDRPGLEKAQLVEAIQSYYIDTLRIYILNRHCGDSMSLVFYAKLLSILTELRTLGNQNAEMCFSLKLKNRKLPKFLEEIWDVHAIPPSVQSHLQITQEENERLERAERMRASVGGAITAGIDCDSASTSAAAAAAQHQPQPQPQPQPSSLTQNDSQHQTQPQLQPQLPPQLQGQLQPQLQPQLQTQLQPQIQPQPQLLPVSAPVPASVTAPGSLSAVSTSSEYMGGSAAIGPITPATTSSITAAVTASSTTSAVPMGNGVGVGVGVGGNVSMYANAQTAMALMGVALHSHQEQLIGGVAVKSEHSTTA

[2] = molecular target: T2, wild-type Choristoneura fumiferana EcR (CfEcR-DEF) (Choristoneura fumiferana, UniProt O77255); assay: Two-hybrid gene switch assay, wild-type CfEcR-DEF (GAL4-EcR / VP16-RXR-USP chimera, luciferase) in NIH3T3 cells; details: for Emax: NIH3T3, 48 h
T2 sequence (O77255 219-541): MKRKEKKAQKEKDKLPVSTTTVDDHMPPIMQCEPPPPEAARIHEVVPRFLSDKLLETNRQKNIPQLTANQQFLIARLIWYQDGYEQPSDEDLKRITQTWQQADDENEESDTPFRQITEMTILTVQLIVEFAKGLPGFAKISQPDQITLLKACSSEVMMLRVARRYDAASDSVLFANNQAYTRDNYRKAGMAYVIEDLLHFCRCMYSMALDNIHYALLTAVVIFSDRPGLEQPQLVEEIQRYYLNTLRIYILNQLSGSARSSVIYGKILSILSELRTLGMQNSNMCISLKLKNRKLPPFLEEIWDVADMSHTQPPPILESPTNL
T2 sequence (P28702 299-449 partner): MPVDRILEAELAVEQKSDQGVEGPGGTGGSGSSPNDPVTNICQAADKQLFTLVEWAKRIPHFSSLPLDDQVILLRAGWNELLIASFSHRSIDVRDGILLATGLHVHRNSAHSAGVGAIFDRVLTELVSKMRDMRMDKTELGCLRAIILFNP

[3] = molecular target: T3, Tenebrio molitor EcR (TmEcR-DEF) (Tenebrio molitor, UniProt O02035); assay: Two-hybrid gene switch assay, TmEcR-DEF in NIH3T3 cells; details: for Emax: NIH3T3, 48 h
T3 sequence (O02035 194-491): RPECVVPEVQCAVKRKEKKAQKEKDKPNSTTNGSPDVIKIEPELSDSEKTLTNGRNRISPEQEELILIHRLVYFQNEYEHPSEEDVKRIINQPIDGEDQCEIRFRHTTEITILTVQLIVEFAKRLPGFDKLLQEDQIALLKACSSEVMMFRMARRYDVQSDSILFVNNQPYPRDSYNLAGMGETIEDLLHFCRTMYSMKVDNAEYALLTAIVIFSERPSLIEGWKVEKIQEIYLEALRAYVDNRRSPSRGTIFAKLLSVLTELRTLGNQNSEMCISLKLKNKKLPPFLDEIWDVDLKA
T3 sequence (P28704 285-520 partner): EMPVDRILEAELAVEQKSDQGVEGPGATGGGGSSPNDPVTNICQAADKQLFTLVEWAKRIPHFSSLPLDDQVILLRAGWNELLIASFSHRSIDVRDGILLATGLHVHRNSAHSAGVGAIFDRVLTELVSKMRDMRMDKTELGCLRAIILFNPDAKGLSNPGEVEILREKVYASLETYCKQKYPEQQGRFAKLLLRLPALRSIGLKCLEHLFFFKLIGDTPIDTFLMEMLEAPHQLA

[4] = molecular target: T4, Manduca sexta EcR (MsEcR) (Manduca sexta, UniProt P49883); assay: Two-hybrid gene switch assay, MsEcR-CDEF in NIH3T3 cells; details: for rel max FI (20E), MS: max fold induction at any concentration relative to 20E; for rel max FI (PoA), MS: max fold induction at any concentration relative to PoA
T4 sequence (P49883 293-531 limits assumed): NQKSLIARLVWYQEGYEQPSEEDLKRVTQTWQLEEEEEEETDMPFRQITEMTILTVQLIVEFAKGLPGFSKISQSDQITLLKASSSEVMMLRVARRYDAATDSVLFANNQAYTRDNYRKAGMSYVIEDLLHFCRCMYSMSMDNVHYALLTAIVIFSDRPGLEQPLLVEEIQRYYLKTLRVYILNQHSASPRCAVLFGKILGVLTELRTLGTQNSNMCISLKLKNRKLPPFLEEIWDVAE

[5] = molecular target: Bemisia argentifolii EcR (BaEcR-DEF) (Bemisia argentifolii (Bemisia tabaci biotype B / MEAM1), UniProt A0A6M3RDR8); assay: Two-hybrid gene switch assay, BaEcR-DEF in NIH3T3 cells; details: for Emax: NIH3T3, 48 h
[6] = system: EcRs (lepidopteran and non-lepidopteran); assay: Two-hybrid gene switch assays, statements across the set of ten EcRs in NIH3T3 cells
[7] = system: D. melanogaster BII cell line (expresses the ecdysteroid receptor complex EcR-USP); assay: Drosophila melanogaster BII cell line bioassay (turbidometric; agonist and antagonist versions); details: Drosophila BII cell line, Example Two

Chain of Bemisia argentifolii EcR (BaEcR-DEF) (P28702 298-449): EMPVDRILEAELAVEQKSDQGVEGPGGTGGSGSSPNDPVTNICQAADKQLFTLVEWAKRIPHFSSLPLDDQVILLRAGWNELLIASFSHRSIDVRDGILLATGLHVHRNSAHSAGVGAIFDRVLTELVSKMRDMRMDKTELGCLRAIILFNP
Chain of Bemisia argentifolii EcR (BaEcR-DEF) (A0A6M3RDR8 entry or part of it): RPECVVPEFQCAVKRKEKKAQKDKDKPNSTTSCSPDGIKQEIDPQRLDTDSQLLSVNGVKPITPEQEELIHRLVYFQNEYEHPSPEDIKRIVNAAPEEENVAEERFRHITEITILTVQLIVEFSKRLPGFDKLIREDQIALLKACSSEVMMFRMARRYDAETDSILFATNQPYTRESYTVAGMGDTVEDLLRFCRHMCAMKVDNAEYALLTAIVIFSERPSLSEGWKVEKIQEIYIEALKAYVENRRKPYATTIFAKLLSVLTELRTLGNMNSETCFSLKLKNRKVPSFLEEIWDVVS

Compound	rel max FI (20E), DM ([1]; DmEcR)	rel max FI (PoA), DM ([1]; DmEcR)	rel max FI (20E), MS ([4]; MsEcR)	rel max FI (PoA), MS ([4]; MsEcR)	EC50 [1] [µM]	EC50 [2] [µM]	Emax ([2]; read-out: rel max FI (20E), CF) [%]	Emax ([2]; read-out: rel max FI (PoA), CF) [%]	EC50 [3] [µM]	Emax ([3]; read-out: rel max FI (20E), TM) [%]	Emax ([3]; read-out: rel max FI (PoA), TM) [%]	EC50 [4] [µM]	EC50 [5] [µM]	Emax ([5]; read-out: rel max FI (20E), BA) [%]	Emax ([5]; read-out: rel max FI (PoA), BA) [%]	selectivity / relative potency between EcRs [6]	other results
COC1C[C@H]2C(=O)C=C3[C@H](CC[C@]4(C)[C@@H]([C@@](C)(O)C(CCC(C)(C)O)OC)CC[C@@]34OC)[C@@]2(C)CC1OC (some centres unmarked) [20E-2,3,14,22-tetramethyl ether]	0.01	0.02	0.00	0.00	–	–	–	–	–	–	–	–	–	–	–	–	EC50 ([1]; read-out: EC50 (μM), DM, DmEcR, NIH3T3 cells, luciferase, 48 h, ligand 0.01-33 μM): > 33 µM; EC50 ([2]; read-out: EC50 (μM), CF, wild-type CfEcR, NIH3T3 cells, luciferase, 48 h, ligand 0.01-33 μM): > 33 µM; rel max FI (20E), CF ([2]; wild-type CfEcR, max fold induction at any concentration relative to 20E): 0.46; rel max FI (PoA), CF ([2]; wild-type CfEcR, max fold induction at any concentration relative to PoA): 0.00; rel max FI (20E), TM ([3]; TmEcR, max fold induction at any concentration relative to 20E): 0.05; rel max FI (PoA), TM ([3]; TmEcR, max fold induction at any concentration relative to PoA): 0.02; EC50 ([3]; read-out: EC50 (μM), TM, TmEcR, NIH3T3 cells, luciferase, 48 h, ligand 0.01-33 μM): > 33 µM; EC50 ([4]; read-out: EC50 (μM), MS, MsEcR, NIH3T3 cells, luciferase, 48 h, ligand 0.01-33 μM): > 33 µM; rel max FI (20E), BA ([5]; BaEcR, max fold induction at any concentration relative to 20E): 0.02; rel max FI (PoA), BA ([5]; BaEcR, max fold induction at any concentration relative to PoA): 0.01; EC50 ([5]; read-out: EC50 (μM), BA, BaEcR, NIH3T3 cells, luciferase, 48 h, ligand 0.01-33 μM): > 33 µM
CO[C@@H]1C[C@H]2C(=O)C=C3[C@H](CC[C@]4(C)[C@@H]([C@@](C)(O)[C@H](O)CCC(C)(C)O)CC[C@@]34O)[C@@]2(C)C[C@@H]1O [20E-3-methyl ether]	0.02	0.03	1.15	0.73	> 33	> 33	115	1	~10	114	59	~10	~15	29	23	–	–
CO[C@@H]1C[C@H]2C(=O)C=C3[C@H](CC[C@]4(C)[C@@H]([C@@](C)(O)[C@@H](CCC(C)(C)O)OC)CC[C@@]34O)[C@@]2(C)C[C@@H]1O [20E-3,22-dimethyl ether]	0.07	0.09	0.82	0.52	~20	> 33	46	0	~6	137	71	~10	~10	38	30	–	–
CC(C)CC[C@@H](O)[C@](C)(O)[C@H]1CC[C@@]2(O)C3=CC(=O)[C@@H]4C[C@@H](O)[C@@H](O)C[C@]4(C)[C@H]3[C@H](O)C[C@]12C [ajugasterone C]	–	–	–	–	–	–	–	–	–	–	–	–	–	–	–	higher in non-lepidopteran species	–
CC(C)(O)C(CCC(C)(O)C1CCC2(O)C3=CC(=O)C4CC(O)C(O)CC4(C)C3CCC12C)OC(=O)c1ccc[nH]1 (centres unmarked) [canescensterone]	–	–	–	–	–	–	–	–	–	–	–	–	–	–	–	selective for non-lepidopteran EcRs; also recorded: BaEcR>E274V/V390I/Y410E mutant-CfEcR	EC50 [7]: 0.00053 µM
CO[C@H]1C[C@@]2(C)[C@@H](C[C@H]1O)C(=O)C=C1[C@@H]2CC[C@]2(C)[C@@H]([C@@](C)(O)[C@@H](CCC(C)(C)O)OC)CC[C@@]12O [20E-2,22-dimethyl ether]	0.12	0.15	0.15	0.09	–	> 33	63	0	~10	24	13	~20	~10	24	19	–	EC50 ([1]; EC50 (μM), DM, DmEcR, NIH3T3 cells, luciferase, 48 h, ligand 0.01-33 μM): ~20 µM
CO[C@H]1C[C@@]2(C)[C@@H](C[C@H]1O)C(=O)C=C1[C@@H]2CC[C@]2(C)[C@@H]([C@@](C)(O)[C@H](O)CCC(C)(C)O)CC[C@@]12O [20E-2-methyl ether]	0.00	0.00	0.16	0.10	> 33	> 33	14	0	> 33	7	4	~20	> 33	3	3	–	–
CC(C)=CC[C@@H](O)[C@](C)(O)[C@H]1CC[C@@]2(O)C3=CC(=O)[C@@H]4C[C@@H](O)[C@@H](O)C[C@]4(C)[C@H]3CC[C@]12C [stachysterone C]	–	–	–	–	–	–	–	–	–	–	–	–	–	–	–	–	activity across the tested set of EcRs ([6]; FIGS. 13 and 14): active
C[C@@H]1C(=O)O[C@H](C)[C@H]1C[C@@H](O)[C@](C)(O)[C@H]1CC[C@@]2(O)C3=CC(=O)[C@@H]4C[C@@H](O)[C@@H](O)C[C@]4(C)[C@H]3CC[C@]12C [cyasterone]	–	–	–	–	–	–	–	–	–	–	–	–	–	–	–	somewhat selective for lepidopteran EcRs	–
CO[C@H](CCC(C)(C)O)[C@](C)(O)C1CC[C@@]2(O)C3=CC(=O)C4C[C@@H](O)[C@@H](O)CC4(C)C3CCC12C (some centres unmarked) [20E-22-methyl ether]	0.87	1.07	1.29	0.81	~4	> 33	7	0	7.08	158	81	~10	~3	154	123	–	–

Reference: US8536354B2, “Steroidal ligands and their use in gene switch modulation” (Intrexon Corporation, priority 2008, dated 2013)
